Active and inactive are the calls of the source. The rule behind the calls is not given here.
Experiment: growth suppression of beta-catenin-knockout colon cells, dose response, cell-based, HCT116, human colon tumor (AID 1045);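 note: HCT116 colon tumor cells with beta catenin knocked out; cells exposed to compound for 60 hours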
Assay type: functional

## Cc1ccc(-n2sc3ccccc3c2=O)cc1
  EC50: 24.4 µM (active)
